Experimental findings from patent publication US9067871B2, “Aminotetraline derivatives, pharmaceutical compositions containing them, and their use in therapy” (ABBVIE DEUTSCHLAND GMBH & CO KG, priority 2009, dated 2015) are described below.

SMILES strings stand for the structures. pKi: −log10 of the molar value. Structures can show the parent of a compound that is named as a salt.

The test deals with human GlyT1c transporter (Homo sapiens (Human), UniProt P48067). The test can be described thus: Radioligand binding assay using recombinant CHO cell membranes expressing human GlyT1. Conditions: human GlyT1c-expressing CHO cell membranes; read-out: radioligand binding Kiapp. The text has this: 2. Radioligand binding assays using recombinant CHO cell membranes expressing human GlyT1: […]
Chain of human GlyT1c transporter (P48067 whole entry): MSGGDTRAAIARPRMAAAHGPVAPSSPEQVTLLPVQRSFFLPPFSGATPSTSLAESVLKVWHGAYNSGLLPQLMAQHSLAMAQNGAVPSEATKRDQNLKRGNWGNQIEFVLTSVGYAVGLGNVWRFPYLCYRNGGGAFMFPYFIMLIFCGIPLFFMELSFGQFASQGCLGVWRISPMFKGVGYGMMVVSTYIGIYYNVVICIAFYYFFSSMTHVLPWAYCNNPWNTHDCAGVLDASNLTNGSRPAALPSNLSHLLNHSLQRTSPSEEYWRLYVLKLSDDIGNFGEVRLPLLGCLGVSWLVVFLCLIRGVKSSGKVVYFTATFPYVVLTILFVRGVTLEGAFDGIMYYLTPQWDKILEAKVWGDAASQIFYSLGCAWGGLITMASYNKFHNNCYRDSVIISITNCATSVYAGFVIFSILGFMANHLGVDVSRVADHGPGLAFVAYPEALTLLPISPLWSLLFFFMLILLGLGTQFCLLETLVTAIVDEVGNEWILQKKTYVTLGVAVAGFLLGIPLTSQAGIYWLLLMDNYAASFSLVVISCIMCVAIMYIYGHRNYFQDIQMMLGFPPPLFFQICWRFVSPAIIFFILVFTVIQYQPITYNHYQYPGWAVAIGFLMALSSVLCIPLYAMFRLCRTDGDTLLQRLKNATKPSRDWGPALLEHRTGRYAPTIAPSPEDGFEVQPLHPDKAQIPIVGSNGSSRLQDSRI

For the compound `CN(CCOc1ccc2c(c1)C(Cc1ccc(Cl)cc1)C(N)CC2)S(=O)(=O)CC1CC1` (stereo not drawn) [Example 129, N-(2-{[7-Amino-8-(4-chlorobenzyl)-5,6,7,8-tetrahydronaphthalen-2-yl]oxy}ethyl)-1-cyclopropyl-N-methylmethanesulfonamide hydrochloride], the pKi is ≥ 8.00.

For the compound `CCOC(=O)NC1CCc2ccc(OCCNS(=O)(=O)CC3CC3)cc2C1Cc1cccc(Cl)c1` (stereo not drawn) [Example 287, [1-(3-Chloro-benzyl)-7-(2-cyclopropylmethanesulfonylamino-ethoxy)-1,2,3,4-tetrahydronaphthalen-2-yl]-carbamic acid ethyl ester], the pKi was ≥ 5.00.

Take `Cn1cnc(S(=O)(=O)NCCOc2ccc3c(c2)C(Cc2cccc(F)c2)C(N2CCCC2)CC3)c1` (stereo not drawn) [Example 140, N-(2-{[8-(3-Fluorobenzyl)-7-(pyrrolidin-1-yl)-5,6,7,8-tetrahydronaphthalen-2-yl]oxy}ethyl)-1-methyl-1H-imidazole-4-sulfonamide hydrochloride]: the pKi was ≥ 8.00.

Take `CNC1CCc2ccc(OCCNS(=O)(=O)CC3CC3)cc2C1Cc1cccc(F)c1` (stereo not drawn) [Example 247, 1-Cyclopropyl-N-(2-{[8-(3-fluorobenzyl)-7-(methylamino)-5,6,7,8-tetrahydronaphthalen-2-yl]oxy}ethyl)methanesulfonamide hydrochloride]: the pKi was ≥ 8.00.

Turning to `Cn1cnc(S(=O)(=O)NCc2ccc3c(c2)C(Cc2cccc(F)c2)C(N2CCC2)CC3)c1` (stereo not drawn) [Example 256, N-{[7-(Azetidin-1-yl)-8-(3-fluorobenzyl)-5,6,7,8-tetrahydronaphthalen-2-yl]methyl}-1-methyl-1H-imidazole-4-sulfonamide hydrochloride], the pKi is ≥ 7.00.

On to `CNC1CCc2ccc(OCCNS(=O)(=O)CC3CC3)cc2C1Cc1ccccc1F` (stereo not drawn) [Example 312, C-Cyclopropyl-N-{2-[8-(2-fluoro-benzyl)-7-methylamino-5,6,7,8-tetrahydro-naphthalen-2-yloxy]-ethyl}-methanesulfonamide hydrochloride], for which the pKi was ≥ 7.00.

On to `CN(CCCc1ccc2c(c1)C(Cc1ccc(Cl)cc1)C(N)CC2)S(=O)(=O)CC1CC1` (stereo not drawn) [Example 233, N-{3-[7-Amino-8-(4-chlorobenzyl)-5,6,7,8-tetrahydronaphthalen-2-yl]propyl}-1-cyclopropylN-methylmethanesulfonamide hydrochloride], for which the pKi was ≥ 7.00.

Regarding `CN(CCOc1ccc2c(c1)C(Cc1ccccc1)C(N1CCC1)CC2)S(=O)(=O)c1cnn(C)c1` (stereo not drawn) [Example 112, 1-Methyl-1H-pyrazole-4-sulfonic acid [2-(7-azetidin-1-yl-8-benzyl-5,6,7,8-tetrahydronaphthalen-2-yloxy)-ethyl]-methyl-amide hydrochloride], the pKi was ≥ 7.00.

Turning to `CCCS(=O)(=O)NCCCc1ccc2c(c1)C(Cc1cccc(F)c1)C(NC(C)=O)CC2` (stereo not drawn) [Example 214, N-[1-(3-Fluorobenzyl)-7-{3-[(propylsulfonyl)amino]propyl}-1,2,3,4-tetrahydronaphthalen-2-yl]acetamide], the pKi is ≥ 5.00.

Turning to `CN(CCOc1ccc2c(c1)C(Cc1ccccc1)C(N)CC2)S(=O)(=O)CC1CC1` (stereo not drawn) [Example 130, N-[2-(7-Amino-8-benzyl-5,6,7,8-tetrahydro-naphthalen-2-yloxy)-ethyl]-C-cyclopropyl-Nmethyl-methanesulfonamide hydrochloride], the pKi is ≥ 8.00.

For the compound `CCCS(=O)(=O)NCCCc1ccc2c(c1)C(Cc1ccccc1)C(N1CCCC1)CC2` (stereo not drawn) [Example 265, Propane-1-sulfonic acid [3-(8-benzyl-7-pyrrolidin-1-yl-5,6,7,8-tetrahydro-naphthalen-2-yl)propyl]-amide hydrochloride], the pKi is ≥ 6.00.

For the compound `Cn1cc(S(=O)(=O)NCCOc2ccc3c(c2)C(Cc2cccc(Cl)c2)C(N2CCC2)CC3)cn1` (stereo not drawn) [Example 322, 1-Methyl-1H-pyrazole-4-sulfonic acid {2-[7-azetidin-1-yl-8-(3-chloro-benzyl)-5,6,7,8-tetrahydro-naphthalen-2-yloxy]-ethyl}-amide hydrochloride], the pKi was ≥ 8.00.
